Values quoted from earlier work in patent publication US20250333422A1, “AMORPHOUS BERBERINE WITH ENHANCED BIOAVAILABILITY” (Nature's Way Products, LLC, priority 2024, published 2025).
Structures can show the parent of a compound that is named as a salt.

What was measured:
[1] = berberine metabolites
[2] = not given; remark: listed apart in the source

SMILES | biological activities for antioxidative, hepatoprotective, and hypolipidemic effects [1] | further results
COc1ccc2cc3[n+](cc2c1OC)CCc1cc2c(cc1-3)OCO2 [Berberine, Berberine HCl] | – | share of dose that goes into the lower bowel unabsorbed (oral dose): 99%; bioavailability (standard crystalline berberine, oral): < 1%
COc1ccc2cc3[n+](cc2c1O)CCc1cc2c(cc1-3)OCO2 [berberrubine] | showed biological activities | –
COc1ccc2cc3[n+](cc2c1OC)CCc1cc(O)c(O)cc1-3 [demethyleneberberine] | showed biological activities | –
COc1ccc2c(c1OC)CN1CCc3cc4c(cc3C1=C2)OCO4 [dhBB, dihydroberberine] | – | bioavailability of berberine versus an oral dosage of standard berberine [2]: 5 times
COc1cc2c(cc1O)CC[n+]1cc3c(OC)c(OC)ccc3cc1-2 [jatrorrhizine] | showed biological activities | –
COc1c(O)ccc2cc3[n+](cc12)CCc1cc2c(cc1-3)OCO2 [thalifendine] | showed biological activities | –
